“Also recorded” adds a separate entry of the source.

In test [1] the test system is LC3B-II and p62 in primary RPE monolayers. As to the kind of experiment: Immunoblotting of LC3B-II and p62 in polarized primary RPE monolayers. The class given is cell-based, porcine. Particulars: A2E-laden RPE after mTOR inhibition; TO901317 1 μM 20 h, desipramine 10 μM 3 h. As for the experimental part:
RPE harvested from mouse eyecups were sonicated in lysis buffer with protease inhibitors for 10 min. Primary RPE on TRANSWELL filters were harvested and lysed with NE-PER nuclear and cytoplasmic extraction reagents (Thermo Scientific #78833) according to the manufacturer's recommendation. Protein concentrations were measured with DC assay (BioRad). […] Proteins were then transferred onto nitrocellulose membrane using IBLOT dry transfer system (INVITROGEN), blocked in 5% milk in TBS-T for 1 hour before incubating in primary antibody overnight at 4° C. Membranes were probed with antibodies to LC3B (1:3000, Novus NB600-1384 for pig and 1:500, Sigma L7543 for mouse), p62/SQSTM1 (1:1000, ARP03-GP62-C) and actin (1:5000, Santa Cruz) followed by horseradish peroxidase-conjugated secondary antibodies. Immunoblots were visualized by ECL substrate (Thermo Scientific) and quantified using Image Studio (LI-COR). […] Other drugs used were the mTOR inhibitors Torin 1 and Torin 2 (50 nM and 1.5 μM, respectively, for 2 h, TOCRIS), the vacuolar ATPase inhibitor bafilomycin A1 (100 nM for 2 h, EMD Millipore), the LXRα agonist TO901317 (1 μM for 20 h, Cayman Chemicals), the HDAC6 inhibitor trichostatin A (TSA, 500 nM, 16 h, Sigma) and the ASMase inhibitor desipramine (10 μM for 3 h, Sigma). To depolymerize MTs, cells were treated with 33 μM nocodazole for 30 minutes, followed by cold-treatment (4° C.) for 30 minutes (Kreitzer et al., 2003). At the concentrations and exposure times used, none of these drugs caused alterations in RPE cell morphology or physiology (monitored by TER measurements, ZO-1 and organelle marker staining). […] Conversion of LC3B-I to its lipidated form (LC3B-II) is an indicator of autophagosome biogenesis and p62 levels are a measure of autophagic flux (Klionsky et al., 2012).
(A western blot detects proteins with antibodies after separation by electrophoresis.)

Test [2] relates to primary RPE cells. In words: Live imaging of tandem fluorescent mRFP-GFP-LC3 (tfLC3), autophagic flux. Particulars: RPE with A2E; 3 h drug incubation (TO901317 1 μM 20 h). The class given is cell-based, porcine. The protocol: RPE cells were transfected with EGFP-LC3 or tandem fluorescent mRFP-GFP-LC3 (Addgene) using the AMAXA NUCLEOFECTOR II (Lonza). Approximately 1.5 million cells and 5 μg of plasmid DNA were used for each transfection. Cells were plated either on serum-coated glass-bottom dishes (Mattek) or […] filters at confluence.
Andor IQ2 software was used for image acquisition and Imaris x64 (Bitplane) for image analysis. […] Trafficking data was collected from three separate transfections for a total of at least 12-30 movies captured for treatment. During image acquisition care was taken to maintain the same laser power, exposure and electron-multiplying gain settings. […] After background subtraction (using the background subtraction algorithm and identical automatic threshold for all images) and smoothing (Gaussian algorithm with identical threshold settings for all images), Spots and Tracks algorithms were used to identify vesicles and follow them through time and cell-space to obtain total track length and track displacement.
We used tandem fluorescent mRFP-GFP-LC3 (tfLC3) to monitor autophagy in primary RPE cells in real time.
We performed two initial screens: first, we compared the ability of functional inhibitors (fluoxetine and amitriptyline) with that of the lone structural ASMase inhibitor zoledronic acid in decreasing acetylated tubulin. Here, polarized RPE monolayers with or without A2E were treated with one of the three inhibitors (10 μM, 3 h). Desipramine as a positive control. At the end of the incubation period, cells were fixed and stained for acetylated tubulin, imaged and the amount of acetylated tubulin in the cells was quantified. Second, we evaluated three additional drugs (sertraline, astemizole and fexofenadine) for their abilities to increase autophagy in the RPE. Cells with or without bisretinoids were transfected with mRFP-GFP-LC3, starved to induce autophagy, treated with drugs and imaged as in FIG. 9D.

Test [3] deals with acid sphingomyelinase (ASMase). As to the kind of experiment: ASMase activity in primary RPE (sphingomyelinase fluorimetric assay kit). Particulars: desipramine 10 μM for 3 hours. The format is cell-based, porcine. As for the experimental part: Cells were harvested by trypsinization and cell pellets were washed with PBS to remove residual medium. Cells were lysed in HNTG lysis buffer (50 mM Hepes, pH 7.4, 150 mM NaCl, 10% glycerol, 1.5 mM MgCl2, 1% triton X-100) supplemented with protease inhibitors. Total protein was measured using the DC protein assay kit (BioRad). Cellular cholesterol was quantified using the Amplex Red cholesterol assay kit (INVITROGEN) as detailed previously (Lakkaraju et al., 2007). Single eyecups from wild-type and ABCA4^−/− mice were homogenized in 50 μl of lysis buffer and processed as above. For measuring acid sphingomyelinase activity, cells were lysed in acidic pH and assays were performed using the sphingomyelinase fluorimetric assay kit from Cayman Chemicals according to the manufacturer's protocol.

Test [4] has as its system ceramide in primary RPE. In words: Immunofluorescence staining for ceramide. The settings on record: desipramine treatment. The class given is cell-based, porcine. The protocol: ALEXAFLUOR secondary antibodies were used at 1:500 and rhodamine-phalloidin (Cytoskeleton, PHDR1) at 1:200. Filters were mounted under coverslips on glass slides under VECTASHIELD (Vector labs), sealed and visualized with Andor Revolution XD spinning disk confocal microscope using a 60×1.4 NA oil objective with identical exposures and gains for each antibody. Acetylated tubulin-labeled stable microtubules (≥5 μm in length) after nocodazole treatment were analyzed manually in the Surpass mode of Imaris (Bitplane).

The test system of test [5] is CD59 on polarized primary RPE. As to the kind of experiment: Surface CD59 staining. The class given is cell-based, porcine. Particulars: RPE with A2E; short treatment with desipramine. The protocol: AlexaFluor secondary antibodies were used at 1:500. Filters were mounted under coverslips on glass slides under VECTASHIELD (Vector labs), sealed and visualized with Andor Revolution XD spinning disk confocal microscope using 60×1.4 NA or 100×1.49 NA oil objectives with identical exposures and gains for each antibody. Quantification of surface CD59 staining was performed using Imaris.

Test [6] deals with primary RPE monolayers. In words: Reactive oxygen species assay (CELLROX) after 10% NHS. The class given is cell-based, porcine. The settings on record: RPE with A2E, short treatment with desipramine. As for the experimental part:
Reactive oxygen species (ROS) generation was measured using […] Deep Red (Molecular Probes, #10422) according to manufacturer's recommendation. After 10% NHS treatment, medium containing NHS was removed and cells were rinsed with HBSS before incubation in 5 μM […] reagent at 37° C. for 30 min. Cells were rinsed 3 times with PBS and fluorescence was read with microplate reader at Ex/Em of 640/665. For normalization purposes, cells were fixed, stained with DAPI, and fluorescence was read at Ex/Em: 360/460.

Test [7] has as its system MHC-II in RPE. In words: Quantification of MHC-II staining. The format is cell-based. The settings on record: RPE with A2E.

For the compound `CNCCCN1c2ccccc2CCc2ccccc21` [desipramine], in test [1], the “LC3B-II levels / autophagosome biogenesis (immunoblot)” value is reported as “increased LC3B-II levels in RPE with A2E comparable to those in control cells” and the “p62 levels / autophagic flux (immunoblot)” value is “decreased p62 levels in cells with A2E”. Further, the “autophagic flux / autophagosome-lysosome fusion (tfLC3 EGFP:mRFP)” value in test [2] is listed as “corrected defects in autophagosome-lysosome fusion; also recorded: completely reversed the autophagic block induced by A2E”. Also, the ASMase activity entry in test [3] was “decreased ASMase activity and ceramide levels”. Moreover, the ceramide levels entry in test [4] was “decreased ASMase activity and ceramide levels”. For the same compound, the “surface CD59 levels” value in test [5] is “increased surface CD59 levels”. In test [6], the “ROS levels after complement attack” value is on record as “decreased ROS levels after complement attack”. Also, in test [6] (listed as Desipramine), the “ROS levels after complement attack” value is “prevented mitochondrial oxidative damage after complement attack”. The MHC-II protein levels result in test [7] is “decreased MHC-II protein levels”.

The values are drawn from patent US10124008B2, “Use of inhibitors of acid sphingomyelinase to treat acquired and inherited retinal degenerations” (Wisconsin Alumni Research Foundation, priority 2014, dated 2018).
